In assay [1] the target is Cyclin-dependent kinase 8/19 (Homo sapiens, UniProt P49336+Q9BWU1). As to conditions: ST-2.
Description: Inhibition of CDK8/CDK19 in ST2 cells by alkaline phosphatase activity assay
In assay [2] the test system is CWR22R. The experiment in a line: Antitumor activity against human 22Rv1 cells expressing AR-V7 xenografted in male nude mouse assessed as suppression of tumor growth at 133 mg/kg, administered once a day for 20 days. It counts as functional, organism-based. Background: A xenograft is tissue or cells of one species grown in another, often human tumour cells in immunodeficient mice.

In assay [3] the test system is CWR22R. The experiment in a line: Antitumor activity against human 22Rv1 cells expressing AR-V7 xenografted in male nude mouse assessed as suppression of tumor growth at 66 mg/kg, administered twice a day for 20 days. The format is functional, organism-based.
For assay [4], the system named is Myc-CaP. Briefly: Antiproliferative activity against murine castration-resistant Myc-CaP cells at 1 uM assessed as growth inhibition relative to control. The format is functional. As to conditions: Mus musculus.
Assay [5] has as its system Myc-CaP. Briefly: Antiproliferative activity against murine castration-resistant Myc-CaP cells at 1 uM assessed as growth inhibition in presence of 5 uM enzalutamide relative to control. The format is functional. As to conditions: Mus musculus.
Assay [6] deals with Myc-CaP. Briefly: Inhibition of colony formation in murine castration-resistant Myc-CaP cells at 1 uM by clonogenic assay. It counts as functional. As to conditions: Mus musculus.
The subject of assay [7] is Myc-CaP. Briefly: Inhibition of colony formation in murine castration-resistant Myc-CaP cells at 1 uM in presence of 5 uM enzalutamide by clonogenic assay relative to control. The format is functional. As to conditions: Mus musculus.
In another assay the test system is 4T1. Briefly: Antitumor activity against murine 4T1 cells xenografted in mouse assessed as suppression of tumor volume at 50 mg/kg, po. It counts as functional, organism-based.

Here are results for five compounds from ChEMBL document CHEMBL4804286, “3-amino-4-(4-(4 (dimethylcarbamoyl) phenyl)-1,4-diazepan-1-yl) thieno [2,3-b] pyridine-2-carboxamide for use in cancer therapy and formulations comprising the same” (2020).

Active and inactive are the calls of the source. The rule behind the calls is not given here.

Sequence of Cyclin-dependent kinase 8/19 (P49336 whole entry, looked up): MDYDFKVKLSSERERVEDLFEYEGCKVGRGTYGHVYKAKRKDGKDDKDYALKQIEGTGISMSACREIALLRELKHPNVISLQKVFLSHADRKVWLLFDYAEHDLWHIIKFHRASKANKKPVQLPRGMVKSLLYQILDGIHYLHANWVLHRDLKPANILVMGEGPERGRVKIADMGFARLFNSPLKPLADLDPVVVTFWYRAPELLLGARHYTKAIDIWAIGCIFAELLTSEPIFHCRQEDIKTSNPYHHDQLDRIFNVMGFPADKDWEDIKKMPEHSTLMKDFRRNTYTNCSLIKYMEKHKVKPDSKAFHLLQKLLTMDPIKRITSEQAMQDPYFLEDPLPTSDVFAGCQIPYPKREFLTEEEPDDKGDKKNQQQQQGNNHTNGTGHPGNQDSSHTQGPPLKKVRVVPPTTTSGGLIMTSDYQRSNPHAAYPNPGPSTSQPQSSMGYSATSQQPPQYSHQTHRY
Sequence of Cyclin-dependent kinase 8/19 (Q9BWU1 whole entry, looked up): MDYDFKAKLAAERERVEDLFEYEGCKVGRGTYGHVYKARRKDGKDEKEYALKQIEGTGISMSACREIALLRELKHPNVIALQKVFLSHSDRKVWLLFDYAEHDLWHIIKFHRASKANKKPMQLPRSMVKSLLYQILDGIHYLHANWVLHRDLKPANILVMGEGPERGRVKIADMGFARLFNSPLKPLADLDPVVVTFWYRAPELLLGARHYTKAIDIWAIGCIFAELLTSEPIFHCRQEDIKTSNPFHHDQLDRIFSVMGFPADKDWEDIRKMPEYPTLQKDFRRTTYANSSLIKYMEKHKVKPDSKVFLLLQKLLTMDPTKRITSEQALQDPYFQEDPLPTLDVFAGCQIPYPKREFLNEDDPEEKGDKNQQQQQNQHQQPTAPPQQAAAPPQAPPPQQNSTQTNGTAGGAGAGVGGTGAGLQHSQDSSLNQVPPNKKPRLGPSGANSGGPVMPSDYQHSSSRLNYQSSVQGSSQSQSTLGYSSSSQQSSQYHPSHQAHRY

With `CNC(=O)c1ccc(N2CCCN(c3ccnc4sc(C(N)=O)c(N)c34)CC2)cc1`, in assay [1], the EC200 came out at 54.2 nM.
On the same count and under the same terms, then `COc1ccc(N2CCCN(c3ccnc4sc(C(N)=O)c(N)c34)CC2)cc1`, with 115 nM.
Regarding `CN1CCN(C(=O)c2ccc3cc(CCNc4ncnc5ccc(C#N)cc45)ccc3c2)CC1` [SENEXIN B], the result with CWR22R [2], in the assay with CWR22R [3], in the assay with Myc-CaP [4], with Myc-CaP [5] and in the assay with 4T1 was Active. The inhibition entry with Myc-CaP [6] and in the assay on Myc-CaP [7] was “Active” in each case.
For the compound `CN(C)C(=O)Cc1ccc(N2CCCN(c3ccnc4sc(C(N)=O)c(N)c34)CC2)cc1`, the EC200 in assay [1] turned out to be 6.6 nM.
The same measure, in the same setting: then `Cc1ccc(N2CCCN(c3ccnc4sc(C(N)=O)c(N)c34)CC2)cc1`, with 88.1 nM.
